# Assays:
# [1] = 25° C. in the dark, 0.1 to 61.0 mmol L^−1, follow-up 3.5 hours; cited from earlier work
# [2] = Stability of GSNO incorporated in PEO-PPO-PEO matrix (Pluronic F-127) under refrigeration; assay type: physicochemical; conditions: for Content (%) 30 days / Content (%) 45 days / Content (%) 110 days / Content (%) Initial: 5-8° C.
# [3] = tested on: excisional wound on the back of Wistar rats; assay: Cutaneous wound healing in an animal model (excisional wound); assay type: in vivo
# Text: 6.1. Acceleration of cutaneous wound healing in an animal model. […] The formulation of freshly prepared GSNO (100 μmol L^−1) was topically applied to the wounds of the animals. Wistar rats (n=10) were housed in individual cages with free access to water. In the first day (Day 0-d0), an excisional wound (2×2 cm) was made on the back of the animals, under general anesthesia. The wound was covered with either pure hydrogel (control animals) or GSNO-containing hydrogel (treated group). Thereafter, the wounds were closed with a dressing. Daily, up to the fourth day after injury, the dressings were removed, and the wounds were gently cleaned with cold saline. The hydrogel (either containing GSNO or not) was applied and the dressing was replaced. From the fifth day after injury on, the wounds were no longer closed with a dressing.
# Wound retraction was measured and reepithelization was evaluated histologically. Wound contours were traced in a transparent paper sheet at the day of injury and after 3, 5, 7, 14 and 21 days. The tracing area was determined using image-analysis software (Image-Pro) and the results were expressed as percentages of the initial area. Blood pressure was measured at the beginning and end of the experiments. After euthanasia, a fragment containing the wound and the adjacent healthy skin was removed. The fragments were fixed in formalin solution, processed and embedded in paraffin. The paraffin-embedded specimens were serially sectioned and 5-μm-thick cuts were obtained and stained using the following techniques: hematoxylin-eosin (for overall observation of the tissue fragment), picro-Mallory (for observation of the connective tissue) and picrosirius red (for observation of the collagen fibers). The blood pressure of the control and treated animals was equivalent at the beginning and end of the experiments.
# [4] = incorporated in PEO-PPO-PEO gel at 37° C.; cited from earlier work
# [5] = Stability of solid GSNO stored at room temperature (absorbance at 336 nm); assay type: physicochemical; conditions: amber glass vials, room temperature (25° C.)
# Method: Samples of solid GSNO were stored in amber glass vials and maintained at room temperature (25° C.) for evaluation of its stability. GSNO content in the samples at day 0, after 48 hours (day 2) and after 5 days was quantified from the absorbance readings of the aqueous solutions 500 μmol L^−1 at 336 nm. […] According to the results, after 48-hours of storage at room temperature, decomposition of approximately 52% of the initial GSNO content occurs.
# [6] = Stability of solid glutathione at 30° C. and 40° C. (UV-visible spectrophotometry after conversion to GSNO); assay type: physicochemical; conditions: for Content (%) 30 days / Content (%) 70 days / Content (%) 105 days / Content (%) 165 days / Content (%) Initial: solid
# Method: Samples of solid glutathione (GSH) were stored in amber glass vials and maintained at temperatures of 30° C. and 40° C. for evaluation of its stability. GSH content in the samples was determined by UV-visible spectrophotometry from the reaction between GSH and NaNO2 in acid medium (aqueous HCl solution, 2.0 mol L^−1) forming GSNO with absorption bands at 336 nm and 545 nm. GSNO formation (0.05 mol L^−1) was quantified by the intensity of the GSNO absorption band at 545 nm.
# [7] = 50 μmolL^−1 in hydrogel formulation
# [8] = 100 μmolL^−1 in hydrogel formulation
# [9] = 200 μmolL^−1 in hydrogel formulation
# [10] = twenty-one days after injury, superficial and deep areas
smiles,measurement,setting,value
"N[C@@H](CCC(=O)N[C@@H](CSN=O)C(=O)NCC(=O)O)C(=O)O [GSNO, S-nitrosoglutathione]",thermal decomposition of aqueous solution,[1],undergo spontaneous thermal decomposition
same,Content (%) 30 days,[2]; [7],96 ± 6%
same,Content (%) 45 days,[2]; [7],89 ± 6%
same,Content (%) 110 days,[2]; [7],85 ± 6%
same,Content (%) Initial,[2]; [7],100 ± 6%
same,Content (%) 30 days,[2]; [8],103 ± 6%
same,Content (%) 45 days,[2]; [8],100 ± 6%
same,Content (%) 110 days,[2]; [8],80 ± 6%
same,Content (%) Initial,[2]; [8],100 ± 6%
same,Content (%) 30 days,[2]; [9],90 ± 6%
same,Content (%) 45 days,[2]; [9],90 ± 6%
same,Content (%) 110 days,[2]; [9],85 ± 6%
same,Content (%) Initial,[2]; [9],100 ± 6%
same,decrease in relation to the initial GSNO content,"[2]; in PEO-PPO-PEO matrix, 50, 100 and 200 μmol L^−1, 110 days at 5-8° C.",about 20%
same,area of wound reepithelization larger compared to the control group,[3]; 7 days after injury,> 77%
same,wound retraction versus control group,"[3]; after 3, 5 and 7 days of injury (p=0.01; p=0.05; p=0.007), GSNO-containing hydrogel 100 μmol L^−1",greater
same,new epidermis formation compared to the control animals,[3]; after 14 and 21 days of injury,more accentuated
same,wound contraction in relation to the controls,[3]; after 14 and 21 days of injury,greater
same,blood pressure of control and treated animals,"[3]; beginning and end of the experiments, GSNO 100 μmol L^−1 in Pluronic F-127 hydrogel, topical",equivalent
same,wound area in control animals larger than in GSNO-treated animals,[3]; fourteen days after injury,22%
same,number of microvessels in relation to the control group,[3]; twenty-one days after injury,tendency of increase
same,total number of mast cells in deep areas of the granulation tissue compared to the control group,[3]; twenty-one days after injury,+384%
same,wound area in control animals larger than in GSNO-treated animals,[3]; twenty-one days after injury,20%
same,inflammatory cells in granulation tissue of control group in comparison to GSNO-treated group,[3]; [10],larger number
same,number of fibroblasts in granulation tissue compared to the control group,[3]; [10],increase
same,initial rate of thermal decomposition,[4],2.3 μmolL^−1 min^−1
same,Content (%) After 2 days,[5],48 ± 6%
same,Content (%) After 5 days,[5],36 ± 6%
same,Content (%) Initial (day 0),[5],100 ± 6%
"CC(=O)N[C@@H](CSN=O)C(=O)O [SNAC, S-nitroso-N-acetylcysteine]",thermal decomposition of aqueous solution,[1],undergo spontaneous thermal decomposition
same,initial rate of thermal decomposition,[4],7.2 μmolL^−1 min^−1
"N[C@@H](CSN=O)C(=O)O [S-nitrosocysteine, reference compound]",thermal decomposition of aqueous solution,[1],undergo spontaneous thermal decomposition
"N[C@@H](CCC(=O)N[C@@H](CS)C(=O)NCC(=O)O)C(=O)O [GSH, glutathione]",time remained stable,"[6]; solid form, follow up by UV-visible spectrophotometry",at least 165 days
same,Content (%) 30 days,[6]; 30° C.,100 ± 6%
same,Content (%) 70 days,[6]; 30° C.,102 ± 6%
same,Content (%) 105 days,[6]; 30° C.,103 ± 6%
same,Content (%) 165 days,[6]; 30° C.,100 ± 6%
same,Content (%) Initial,[6]; 30° C.,100 ± 6%
same,Content (%) 30 days,[6]; 40° C.,100 ± 6%
same,Content (%) 70 days,[6]; 40° C.,100 ± 6%
same,Content (%) 105 days,[6]; 40° C.,99 ± 6%
same,Content (%) 165 days,[6]; 40° C.,101 ± 6%
same,Content (%) Initial,[6]; 40° C.,100 ± 6%

# Source: US20090311292A1, “PROCESS FOR SYNTHESIS AND INCORPORATION OF NITRIC OXIDE DONORS IN MACROMOLECULAR COMPOSITIONS” (CRISTALIA PRODUTOS QUIMICOS FARMACEUTICOS LTDA., priority 2006, published 2009)
